Reference: publication PMC4791210 (International immunopharmacology, 2015)

How the values were obtained:
[1] = test system: human neutrophils; test: Direct activation of Ca2+ flux in human neutrophils; assay type: cell-based; details: Neutrophil, read-out: Human Neutrophils Activation (EC50, μM)
[2] = biological target: T1, FPR1 (Homo sapiens, UniProt P21462); test: Direct activation of Ca2+ flux in FPR1 transfected HL-60 cells; assay type: cell-based
T1 sequence (P21462 1-350): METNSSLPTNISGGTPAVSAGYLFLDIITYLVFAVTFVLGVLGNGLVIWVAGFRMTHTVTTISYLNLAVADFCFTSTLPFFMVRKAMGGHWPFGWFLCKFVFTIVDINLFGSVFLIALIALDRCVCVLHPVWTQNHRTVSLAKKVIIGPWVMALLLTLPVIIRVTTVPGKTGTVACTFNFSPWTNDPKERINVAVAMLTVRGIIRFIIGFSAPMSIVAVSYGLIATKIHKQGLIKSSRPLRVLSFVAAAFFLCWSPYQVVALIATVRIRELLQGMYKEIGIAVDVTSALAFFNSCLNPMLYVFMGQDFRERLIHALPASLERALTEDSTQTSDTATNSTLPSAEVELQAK

[3] = test system: FPR1; details: high concentrations; cited from earlier work
[4] = test system: human monocytes; details: read-out: IC50, inhibition of fMLF-induced Ca2+ flux in human monocytes; cited from earlier work
[5] = biological target: T1, FPR1; details: cited from earlier work

SMILES | EC50 [1] [µM] | EC50 [2] [µM] | Concentrations that antagonize FPR1 and inhibit 3H-fMLF binding [3] [µM] | IC50 [4] [µM] | Binding of fluorescent FPR1 ligand in human neutrophils [5]
C[C@H](CCC(=O)O)[C@H]1CC[C@H]2[C@@H]3[C@H](O)C[C@@H]4C[C@H](O)CC[C@]4(C)[C@H]3CC[C@]12C [Chenodeoxycholic acid (CDCA), Chenodeoxycholic acid] | 49.5 ± 5.1 | 40.3 ± 4.5 | ≥ 100 | 40 | –
CC(=O)OC1COC(OC2C(O)C(C)OC(OC3C(OC4CCC5(C)C(CCC6(C)C5CC=C5C7CC(C)(C)CCC7(C(=O)O)CCC56C)C4(C)CO)OCC(O)C3O)C2O)C(O)C1OC(C)=O [SMG-1, hederagenin 3-O-(3,4-O-di-acetyl-α-L-arabinopyranoside)-(1→3)-α-l-rhamnopyranosyl-(1→2)-α-l-arabinopyranoside] | – | – | – | – | blocked binding
